How the values were obtained:
Histamine H3 receptor [1] = biological target: T1, Histamine H3 receptor (Rattus norvegicus, UniProt Q9QYN8); assay: Displacement of [3H]NAMH from histamine H3 receptor in rat cortex
Histamine H3 receptor [2] = biological target: T2, Histamine H3 receptor (Homo sapiens, UniProt Q9Y5N1); assay: Displacement of [3H]NAMH from human full length histamine H3 receptor expressed in rat C6 cells; type: cell-based
[3] = Displacement of [3H]LY278584 from 5HT1 receptor in rat frontal cortex; type: tissue-based
[4] = Displacement of [3H]LY278584 from 5HT2 receptor in rat frontal cortex; type: tissue-based
[5] = Displacement of [3H]LY278584 from 5HT3 receptor in rat frontal cortex; type: tissue-based
[6] = biological target: Histamine H3 receptor (Rattus norvegicus) (UniProt Q9QYN8); assay: Antagonist activity at rat full length histamine H3 receptor expressed in rat C6 cells assessed as inhibition of [35S]gammaGTP binding relative to control; type: cell-based
Chain of Histamine H3 receptor (Rattus norvegicus) (Q9QYN8 whole entry): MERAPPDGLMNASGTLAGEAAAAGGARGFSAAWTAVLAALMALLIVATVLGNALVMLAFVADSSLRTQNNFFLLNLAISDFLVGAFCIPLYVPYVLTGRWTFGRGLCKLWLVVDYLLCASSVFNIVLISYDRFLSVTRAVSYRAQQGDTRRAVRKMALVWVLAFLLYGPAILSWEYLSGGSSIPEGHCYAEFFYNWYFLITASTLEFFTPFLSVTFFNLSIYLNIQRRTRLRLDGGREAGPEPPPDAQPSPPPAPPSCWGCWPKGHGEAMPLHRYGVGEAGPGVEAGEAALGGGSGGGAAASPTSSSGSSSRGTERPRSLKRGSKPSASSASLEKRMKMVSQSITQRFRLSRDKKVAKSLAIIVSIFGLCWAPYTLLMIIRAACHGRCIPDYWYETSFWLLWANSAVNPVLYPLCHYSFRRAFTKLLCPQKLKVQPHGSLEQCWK

Histamine H3 receptor [7] = biological target: T2, Histamine H3 receptor; assay: Antagonist activity at human full length histamine H3 receptor expressed in HEK293 cells assessed as inhibition of (R)-alpha-methylhistamine-induced intracellular calcium release by FLIPR; type: functional, cell-based
[8] = biological target: Histamine H3 receptor (Rattus norvegicus) (UniProt Q9QYN8); assay: Antagonist activity at rat full length histamine H3 receptor assessed as inhibition of (R)-alpha-methylhistamine-induced intracellular calcium release by FLIPR; type: functional, cell-based
Histamine H3 receptor [9] = biological target: Histamine H3 receptor (Cavia porcellus, UniProt Q9JI35); assay: Antagonist activity at histamine H3 receptor in guinea pig ileum assessed as inhibition of (R)-alpha-methylhistamine-induced response
Chain of Histamine H3 receptor (Cavia porcellus, UniProt Q9JI35) (Q9JI35 whole entry): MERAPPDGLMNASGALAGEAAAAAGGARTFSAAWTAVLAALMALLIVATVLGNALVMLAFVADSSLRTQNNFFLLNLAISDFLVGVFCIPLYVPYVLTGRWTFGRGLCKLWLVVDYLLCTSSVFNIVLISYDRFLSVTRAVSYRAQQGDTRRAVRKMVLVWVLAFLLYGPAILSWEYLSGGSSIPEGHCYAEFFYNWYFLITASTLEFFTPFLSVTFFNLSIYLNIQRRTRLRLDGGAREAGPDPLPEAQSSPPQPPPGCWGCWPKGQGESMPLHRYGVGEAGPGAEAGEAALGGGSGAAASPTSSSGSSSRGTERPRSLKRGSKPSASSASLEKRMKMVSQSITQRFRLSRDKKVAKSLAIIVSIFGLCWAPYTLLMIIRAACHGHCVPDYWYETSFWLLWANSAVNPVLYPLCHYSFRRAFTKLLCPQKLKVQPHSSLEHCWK

Histamine H3 receptor [10] = biological target: T2, Histamine H3 receptor; conditions: HEK293
Histamine H3 receptor [11] = biological target: T2, Histamine H3 receptor; conditions: C6
[12] = biological target: Histamine H3 receptor (Rattus norvegicus) (UniProt Q9QYN8); assay: Antagonist activity at rat full length histamine H3 receptor expressed in HEK cells assessed as inhibition of forskolin-induced cAMP accumulation by SPA; conditions: HEK293
Histamine H3 receptor [13] = biological target: T1, Histamine H3 receptor; assay: Displacement of [3H]NAMH from rat full length histamine H3 receptor expressed in rat C6 cells; type: cell-based
Histamine H3 receptor [14] = biological target: T2, Histamine H3 receptor; assay: Displacement of [3H]NAMH from histamine H3 receptor in human cortex
Histamine H1 receptor = Histamine H1 receptor (Homo sapiens, UniProt P35367); assay: Displacement of [3H]mepyramine from human histamine H1 receptor; conditions: read-out: pKi (converted)
Chain of Histamine H1 receptor (P35367 whole entry): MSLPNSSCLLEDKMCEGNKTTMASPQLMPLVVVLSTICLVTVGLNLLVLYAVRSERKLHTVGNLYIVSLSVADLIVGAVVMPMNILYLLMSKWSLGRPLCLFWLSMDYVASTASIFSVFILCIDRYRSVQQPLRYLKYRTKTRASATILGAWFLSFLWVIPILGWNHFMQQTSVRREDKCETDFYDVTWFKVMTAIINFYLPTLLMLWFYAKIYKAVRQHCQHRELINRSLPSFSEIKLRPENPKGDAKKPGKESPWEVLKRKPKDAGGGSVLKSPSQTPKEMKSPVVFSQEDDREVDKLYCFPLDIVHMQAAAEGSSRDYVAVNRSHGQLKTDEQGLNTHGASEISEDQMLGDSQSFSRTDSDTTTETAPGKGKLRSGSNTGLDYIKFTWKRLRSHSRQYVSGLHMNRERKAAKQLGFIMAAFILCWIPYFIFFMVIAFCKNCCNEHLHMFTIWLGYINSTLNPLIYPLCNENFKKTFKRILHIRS

Histamine H2 receptor = Histamine H2 receptor (Homo sapiens, UniProt P25021); assay: Displacement of [3H]tiotidine from human histamine H2 receptor; conditions: read-out: pKi (converted)
Chain of Histamine H2 receptor (P25021 whole entry): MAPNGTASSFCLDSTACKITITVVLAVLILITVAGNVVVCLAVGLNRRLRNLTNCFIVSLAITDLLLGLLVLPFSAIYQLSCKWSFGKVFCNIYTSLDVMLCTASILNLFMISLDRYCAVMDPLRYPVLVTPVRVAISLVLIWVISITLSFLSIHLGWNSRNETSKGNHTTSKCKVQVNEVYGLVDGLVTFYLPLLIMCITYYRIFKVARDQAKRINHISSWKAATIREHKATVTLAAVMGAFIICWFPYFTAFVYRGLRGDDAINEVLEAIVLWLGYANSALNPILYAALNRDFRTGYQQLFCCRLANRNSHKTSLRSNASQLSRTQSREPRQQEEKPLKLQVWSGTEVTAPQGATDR

Histamine H4 receptor = Histamine H4 receptor (Homo sapiens, UniProt Q9H3N8); assay: Displacement of [3H]histamine from human histamine H4 receptor expressed in HEK cells; type: cell-based, HEK293; conditions: read-out: pKi (converted)
Chain of Histamine H4 receptor (Q9H3N8 whole entry): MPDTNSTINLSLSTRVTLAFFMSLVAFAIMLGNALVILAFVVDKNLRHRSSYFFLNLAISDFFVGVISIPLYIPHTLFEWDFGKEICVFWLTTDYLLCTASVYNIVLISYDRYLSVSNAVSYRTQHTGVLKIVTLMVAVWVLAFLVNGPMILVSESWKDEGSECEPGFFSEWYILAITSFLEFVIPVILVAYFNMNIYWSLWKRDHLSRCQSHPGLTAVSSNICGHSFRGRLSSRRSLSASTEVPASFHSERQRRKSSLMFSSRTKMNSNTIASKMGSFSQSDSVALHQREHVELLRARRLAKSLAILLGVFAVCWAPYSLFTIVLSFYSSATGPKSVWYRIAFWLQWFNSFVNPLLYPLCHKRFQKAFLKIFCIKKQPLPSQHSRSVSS

[15] = biological target: T3, Alpha-2C adrenergic receptor (Homo sapiens, UniProt P18825); assay: Displacement of [3H]rauwolscine from human adrenergic alpha 2C4 receptor expressed in mouse LTK- cells; type: cell-based
T3 sequence (P18825 whole entry): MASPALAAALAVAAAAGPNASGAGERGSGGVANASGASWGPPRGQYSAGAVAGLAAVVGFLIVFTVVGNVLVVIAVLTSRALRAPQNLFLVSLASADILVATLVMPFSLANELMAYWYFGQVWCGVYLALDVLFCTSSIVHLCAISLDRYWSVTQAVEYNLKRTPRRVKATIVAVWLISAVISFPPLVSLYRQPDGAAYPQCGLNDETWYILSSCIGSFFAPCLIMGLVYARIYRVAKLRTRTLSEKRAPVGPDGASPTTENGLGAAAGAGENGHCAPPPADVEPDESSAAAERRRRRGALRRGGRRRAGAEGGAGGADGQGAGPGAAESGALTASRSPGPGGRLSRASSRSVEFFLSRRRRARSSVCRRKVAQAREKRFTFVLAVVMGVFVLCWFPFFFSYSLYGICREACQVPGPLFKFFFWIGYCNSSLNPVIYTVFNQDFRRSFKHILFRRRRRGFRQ

[16] = biological target: T4, Alpha-2A adrenergic receptor (Homo sapiens, UniProt P08913); assay: Displacement of [3H]rauwolscine from human adrenergic alpha 2C10 receptor expressed in mouse LTK- cells; type: cell-based
T4 sequence (P08913 whole entry): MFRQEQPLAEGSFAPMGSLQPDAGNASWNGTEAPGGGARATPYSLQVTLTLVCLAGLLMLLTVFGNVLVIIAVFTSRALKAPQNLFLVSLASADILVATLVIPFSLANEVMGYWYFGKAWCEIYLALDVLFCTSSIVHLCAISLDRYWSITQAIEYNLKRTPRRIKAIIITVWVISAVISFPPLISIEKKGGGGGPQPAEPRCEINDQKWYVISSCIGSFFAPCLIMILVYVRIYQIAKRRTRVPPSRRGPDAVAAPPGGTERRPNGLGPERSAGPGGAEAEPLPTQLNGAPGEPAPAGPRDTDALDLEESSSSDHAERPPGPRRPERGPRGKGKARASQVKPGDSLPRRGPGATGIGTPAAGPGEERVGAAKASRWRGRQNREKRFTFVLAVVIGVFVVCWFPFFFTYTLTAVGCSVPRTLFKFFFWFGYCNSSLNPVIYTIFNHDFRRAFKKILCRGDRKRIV

[17] = Plasma concentration in rat at 1 mg/kg, ip after 1 hr; type: ADME, organism-based; parameters: dose 1 mg/kg, route intraperitoneal
[18] = Plasma concentration in rat at 1 mg/kg, ip after 5 hrs; type: ADME, organism-based; parameters: dose 1 mg/kg, route intraperitoneal
[19] = Plasma concentration in rat at 1 mg/kg, ip after 24 hrs; type: ADME, organism-based; parameters: dose 1 mg/kg, route intraperitoneal
[20] = Drug level in rat blood at 1 mg/kg, ip after 1 hr; type: ADME, organism-based; parameters: dose 1 mg/kg, route intraperitoneal; conditions: read-out: Drug uptake
[21] = Drug level in rat blood at 1 mg/kg, ip after 5 hrs; type: ADME, organism-based; parameters: dose 1 mg/kg, route intraperitoneal; conditions: read-out: Drug uptake
[22] = Drug level in rat blood at 1 mg/kg, ip after 24 hrs; type: ADME, organism-based; parameters: dose 1 mg/kg, route intraperitoneal; conditions: read-out: Drug uptake
[23] = Drug level in rat brain at 1 mg/kg, ip after 1 hr; type: ADME, organism-based; parameters: dose 1 mg/kg, route intraperitoneal; conditions: read-out: Drug uptake
[24] = Drug level in rat brain at 1 mg/kg, ip after 5 hrs; type: ADME, organism-based; parameters: dose 1 mg/kg, route intraperitoneal; conditions: read-out: Drug uptake
[25] = Drug level in rat brain at 1 mg/kg, ip after 24 hrs; type: ADME, organism-based; parameters: dose 1 mg/kg, route intraperitoneal; conditions: read-out: Drug uptake
[26] = Ratio of drug level in brain to plasma at 1 mg/kg, ip after 1 hr; type: ADME, organism-based; parameters: dose 1 mg/kg, route intraperitoneal; conditions: rat
[27] = Ratio of drug level in brain to plasma at 1 mg/kg, ip after 5 hrs; type: ADME, organism-based; parameters: dose 1 mg/kg, route intraperitoneal; conditions: rat
[28] = Ratio of drug level in brain to plasma at 1 mg/kg, ip after 24 hrs; type: ADME, organism-based; parameters: dose 1 mg/kg, route intraperitoneal; conditions: rat
[29] = Selectivity ratio for human adrenergic alpha 2C4 receptor over human H3 receptor
Rattus norvegicus = assay: Toxicity in rat assessed as CNS side effects at 1.3 to 13 mg/kg, ip; type: organism-based; parameters: dose 1.3-13 mg/kg, route intraperitoneal; conditions: in vivo

T1 sequence (Q9QYN8 whole entry): as the sequence (Q9QYN8 whole entry) above
T2 sequence (Q9Y5N1 whole entry): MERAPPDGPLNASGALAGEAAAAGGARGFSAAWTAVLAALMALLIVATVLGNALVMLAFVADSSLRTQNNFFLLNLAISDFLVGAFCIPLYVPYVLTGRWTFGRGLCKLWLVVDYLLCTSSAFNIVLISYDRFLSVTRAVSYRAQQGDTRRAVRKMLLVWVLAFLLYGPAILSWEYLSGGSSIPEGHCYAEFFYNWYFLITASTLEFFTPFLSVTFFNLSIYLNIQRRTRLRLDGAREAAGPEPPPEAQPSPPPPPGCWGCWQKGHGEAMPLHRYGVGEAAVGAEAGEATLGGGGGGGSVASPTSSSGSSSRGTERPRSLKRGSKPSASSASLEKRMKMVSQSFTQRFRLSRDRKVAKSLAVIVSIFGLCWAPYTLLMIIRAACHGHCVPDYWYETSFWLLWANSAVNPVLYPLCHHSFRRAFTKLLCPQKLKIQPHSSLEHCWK

Q: With `O=C(c1ccc(OCCCc2cnc[nH]2)cc1)C1CC1` [CIPROXIFAN] as the molecule, how does the Ki (Histamine H3 receptor [1]; read-out: pKi (converted)) read?
A: 0.631 nM

Q: Which Ki (Histamine H3 receptor [2]) does the source give for `C[C@H]1[C@H]2CC[C@H]3[C@@H]4CC=C5C[C@@H](N(C)C(=O)N(C)C)CC[C@]5(C)[C@H]4CC[C@]23CN1C` here?
A: 50.1 nM

Q: And the Ki (Histamine H3 receptor [1]; read-out: Ki)?
A: 295 nM

Q: Which results are given for `CC(=O)N[C@@H](Cc1ccccc1)C(=O)N(C)[C@H]1CC[C@@]2(C)C(=CC[C@H]3[C@@H]4CC[C@@H]5[C@H](C)N(C)C[C@@]54CC[C@@H]32)C1`?
A: Ki (Histamine H3 receptor [2]): 1.15 nM; Ki (Histamine H3 receptor [1]; read-out: Ki): 2.29 nM

Q: With `S=C(NC1CCCCC1)N1CCC(c2cnc[nH]2)CC1` [THIOPERAMIDE] as the molecule, how does the Ki (Histamine H3 receptor [1]; read-out: pKi (converted)) read?
A: 7.08 nM

Q: And the pKi [3]?
A: 4.95

Q: And the pKi [4]?
A: 5.25

Q: What about the pKi [5] of the same molecule?
A: 5.64

Q: What about the pKb [6] of the same molecule?
A: 8.13

Q: And the pKb (Histamine H3 receptor [7])?
A: 6.82

Q: What about the pKb [8] of the same molecule?
A: 9.11

Q: And the Kb (Histamine H3 receptor [9])?
A: 3.63 nM

Q: What about the pKb (Histamine H3 receptor [10]) of the same molecule?
A: 7.39

Q: What about the pKb (Histamine H3 receptor [11]) of the same molecule?
A: 6.1

Q: What about the pKb [12] of the same molecule?
A: 7.61

Q: What does the source list for `C[C@H]1[C@H]2CC[C@H]3[C@@H]4CC=C5C[C@@H](N(C)C(=O)OCC(Cl)(Cl)Cl)CC[C@]5(C)[C@H]4CC[C@]23CN1C`?
A: Ki (Histamine H3 receptor [2]): 19.7 nM; Ki (Histamine H3 receptor [13]; read-out: Ki): 7.91 nM

Q: Which Ki (Histamine H3 receptor [2]) does the source give for `COC(=O)N(C)[C@H]1CC[C@@]2(C)C(=CC[C@H]3[C@@H]4CC[C@@H]5[C@H](C)N(C)C[C@@]54CC[C@@H]32)C1` here?
A: 60.3 nM

Q: And the Ki (Histamine H3 receptor [1]; read-out: Ki)?
A: 257 nM

Q: For `CN(C)CCCOc1c(Br)cc(CCN(C)C)cc1Br` [APLYSAMINE], which IC50 (Histamine H3 receptor [9]) is on record?
A: 500 nM

Q: Which results are given for `C[C@H]1[C@H]2CC[C@H]3[C@@H]4CC=C5C[C@@H](N(C)C)CC[C@]5(C)[C@H]4CC[C@]23CN1C` [CONESSINE]?
A: Ki (Histamine H3 receptor [2]): 5.37 nM; Ki (Histamine H3 receptor [13]; read-out: pKi (converted)): 12.3 nM; Ki (Histamine H3 receptor [14]): 3.47 nM; Ki (Histamine H3 receptor [1]; read-out: pKi (converted)): 24.5 nM; Ki (Histamine H1 receptor): > 10000 nM; Ki (Histamine H2 receptor): > 10000 nM; Ki (Histamine H4 receptor): > 10000 nM; Ki [15]: 10.6 nM; Ki [16]: 661 nM; pKi [3]: 5.72; pKi [4]: < 5; pKi [5]: < 5; pKb (Histamine H3 receptor [7]): 8.08; Kb (Histamine H3 receptor [9]): 282 nM; concentration at 1 h [17]: 148 ng/mL; concentration at 5 h [18]: 89 ng/mL; concentration at 24 h [19]: 37 ng/mL; concentration at 1 h [20]: 444 ng/mL; concentration at 5 h [21]: 306 ng/mL; concentration at 24 h [22]: 102 ng/mL; concentration at 1 h [23]: 6570 ng/g; concentration at 5 h [24]: 6800 ng/g; concentration at 24 h [25]: 4140 ng/g; Kp at 1 h [26]: 46; Kp at 5 h [27]: 95.4; Kp at 24 h [28]: 114; Selectivity ratio [29]: 2; Activity (Rattus norvegicus): Non-toxic; pKb (Histamine H3 receptor [10]): 7.96; pKb (Histamine H3 receptor [11]): 6.14; pKb [12]: 6.99

Q: Which results are given for `C[C@H]1[C@H]2CC[C@H]3[C@@H]4CC=C5C[C@@H](N(C)C(=O)C6CC6)CC[C@]5(C)[C@H]4CC[C@]23CN1C`?
A: Ki (Histamine H3 receptor [2]): 60.3 nM; Ki (Histamine H3 receptor [1]; read-out: Ki): 380 nM

Q: For `CC[C@@H](C)[C@@H](N)C(=O)N(C)[C@H]1CC[C@@]2(C)C(=CC[C@H]3[C@@H]4CC[C@@H]5[C@H](C)N(C)C[C@@]54CC[C@@H]32)C1`, which Ki (Histamine H3 receptor [2]) is on record?
A: 0.37 nM

Q: And the Ki (Histamine H3 receptor [1]; read-out: Ki)?
A: 2.88 nM

Q: Which results are given for `C[C@H]1[C@H]2CC[C@H]3[C@@H]4CC=C5C[C@@H](N(C)C(=O)c6ccncc6)CC[C@]5(C)[C@H]4CC[C@]23CN1C`?
A: Ki (Histamine H3 receptor [2]): 16.2 nM; Ki (Histamine H3 receptor [1]; read-out: Ki): 155 nM

Q: For `CN1C[C@]23CC[C@H]4[C@@H](CC=C5C[C@@H](N(C)C)CC[C@@]54C)[C@@H]2CC[C@@H]3C1=O`, which Ki (Histamine H3 receptor [2]) is on record?
A: 543 nM

Q: What about the Ki (Histamine H3 receptor [13]; read-out: Ki) of the same molecule?
A: 1000 nM

Q: Which Ki (Histamine H3 receptor [13]; read-out: Ki) does the source give for `NCCC(=O)NCCc1c[nH]cn1` [CARCININE] here?
A: 294 nM
